Measured values: patent US20240269139A1, “COMPOUNDS FOR TARGETED PROTEIN DEGRADATION OF KINASES” (DANA-FARBER CANCER INSTITUTE, INC., priority 2020, published 2024)
Read-outs that look alike come from different tables or passages of the source.

Legend:
Assay type in all cases: cell-based
[1] = molecular target: protein kinases (human kinome) (Homo sapiens, UniProt O00764); details: protein PDXK (O00764-1); experiment wp117; down
[2] = molecular target: protein kinases (human kinome) (Homo sapiens, UniProt P54760); details: experiment wp172
Chain of protein kinases (human kinome) (Homo sapiens, UniProt P54760) (P54760 16-987): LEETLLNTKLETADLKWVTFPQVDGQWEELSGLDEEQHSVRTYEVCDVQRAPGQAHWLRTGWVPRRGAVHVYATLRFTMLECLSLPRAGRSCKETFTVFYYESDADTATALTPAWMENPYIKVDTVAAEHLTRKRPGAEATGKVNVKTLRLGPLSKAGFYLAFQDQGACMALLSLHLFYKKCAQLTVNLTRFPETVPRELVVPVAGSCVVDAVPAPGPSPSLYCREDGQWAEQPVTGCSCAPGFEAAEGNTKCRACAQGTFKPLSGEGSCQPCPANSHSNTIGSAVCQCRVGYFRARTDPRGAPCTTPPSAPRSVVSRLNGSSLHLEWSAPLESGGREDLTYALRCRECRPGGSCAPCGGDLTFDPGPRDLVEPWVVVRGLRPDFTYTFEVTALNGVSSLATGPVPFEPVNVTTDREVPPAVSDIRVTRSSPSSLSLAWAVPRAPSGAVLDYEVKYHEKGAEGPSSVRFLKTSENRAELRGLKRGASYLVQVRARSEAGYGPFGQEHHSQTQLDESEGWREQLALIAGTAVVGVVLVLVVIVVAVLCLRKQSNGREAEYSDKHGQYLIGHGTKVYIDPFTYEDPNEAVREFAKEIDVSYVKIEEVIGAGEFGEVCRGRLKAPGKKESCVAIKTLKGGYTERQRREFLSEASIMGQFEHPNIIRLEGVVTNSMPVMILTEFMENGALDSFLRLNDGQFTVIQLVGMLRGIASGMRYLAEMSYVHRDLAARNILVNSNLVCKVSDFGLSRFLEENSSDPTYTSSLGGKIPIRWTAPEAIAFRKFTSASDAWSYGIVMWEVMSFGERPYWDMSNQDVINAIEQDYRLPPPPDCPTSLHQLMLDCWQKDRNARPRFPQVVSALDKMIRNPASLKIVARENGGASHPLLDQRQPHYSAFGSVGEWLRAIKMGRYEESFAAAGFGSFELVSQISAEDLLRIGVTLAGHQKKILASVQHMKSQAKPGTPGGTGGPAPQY

[3] = molecular target: protein kinases (human kinome) (Homo sapiens, UniProt Q13131); details: for logFC PRKAA1 (Q13131): direction down
Chain of protein kinases (human kinome) (Homo sapiens, UniProt Q13131) (Q13131 whole entry): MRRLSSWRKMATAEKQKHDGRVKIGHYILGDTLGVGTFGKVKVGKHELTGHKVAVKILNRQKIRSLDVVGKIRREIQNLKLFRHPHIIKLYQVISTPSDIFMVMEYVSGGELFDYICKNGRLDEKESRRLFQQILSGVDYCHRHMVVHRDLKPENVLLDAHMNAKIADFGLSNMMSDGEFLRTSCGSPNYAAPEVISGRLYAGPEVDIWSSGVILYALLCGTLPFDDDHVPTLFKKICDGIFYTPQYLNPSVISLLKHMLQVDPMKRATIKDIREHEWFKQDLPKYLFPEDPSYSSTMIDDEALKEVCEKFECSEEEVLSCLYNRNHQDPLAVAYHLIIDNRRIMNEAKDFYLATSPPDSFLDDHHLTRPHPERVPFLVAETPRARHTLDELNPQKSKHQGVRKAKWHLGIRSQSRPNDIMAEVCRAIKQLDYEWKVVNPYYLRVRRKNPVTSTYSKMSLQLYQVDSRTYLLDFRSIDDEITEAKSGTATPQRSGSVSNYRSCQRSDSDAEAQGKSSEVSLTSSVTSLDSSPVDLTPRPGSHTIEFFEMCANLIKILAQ

[4] = molecular target: protein kinases (human kinome) (Homo sapiens, UniProt Q96QT4); details: experiment wp107
[5] = molecular target: protein kinases (human kinome) (Homo sapiens, UniProt Q52WX2); details: for logFC: SBK1 (Q52WX2)
Chain of protein kinases (human kinome) (Homo sapiens, UniProt Q52WX2) (Q52WX2 whole entry): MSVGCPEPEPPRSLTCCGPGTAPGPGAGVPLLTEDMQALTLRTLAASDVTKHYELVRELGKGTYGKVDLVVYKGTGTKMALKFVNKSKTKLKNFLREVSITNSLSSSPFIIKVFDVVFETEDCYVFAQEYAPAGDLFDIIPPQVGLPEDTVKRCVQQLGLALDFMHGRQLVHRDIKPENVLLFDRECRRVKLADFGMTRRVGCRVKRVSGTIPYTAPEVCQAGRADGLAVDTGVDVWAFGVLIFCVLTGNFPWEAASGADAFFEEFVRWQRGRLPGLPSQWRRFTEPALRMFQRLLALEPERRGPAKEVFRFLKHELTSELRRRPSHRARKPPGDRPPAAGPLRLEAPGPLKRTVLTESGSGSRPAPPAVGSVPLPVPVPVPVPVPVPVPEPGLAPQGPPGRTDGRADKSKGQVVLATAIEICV

[6] = molecular target: T1, protein kinases (human kinome) (Homo sapiens, UniProt P29323)
T1 sequence (P29323 19-1055): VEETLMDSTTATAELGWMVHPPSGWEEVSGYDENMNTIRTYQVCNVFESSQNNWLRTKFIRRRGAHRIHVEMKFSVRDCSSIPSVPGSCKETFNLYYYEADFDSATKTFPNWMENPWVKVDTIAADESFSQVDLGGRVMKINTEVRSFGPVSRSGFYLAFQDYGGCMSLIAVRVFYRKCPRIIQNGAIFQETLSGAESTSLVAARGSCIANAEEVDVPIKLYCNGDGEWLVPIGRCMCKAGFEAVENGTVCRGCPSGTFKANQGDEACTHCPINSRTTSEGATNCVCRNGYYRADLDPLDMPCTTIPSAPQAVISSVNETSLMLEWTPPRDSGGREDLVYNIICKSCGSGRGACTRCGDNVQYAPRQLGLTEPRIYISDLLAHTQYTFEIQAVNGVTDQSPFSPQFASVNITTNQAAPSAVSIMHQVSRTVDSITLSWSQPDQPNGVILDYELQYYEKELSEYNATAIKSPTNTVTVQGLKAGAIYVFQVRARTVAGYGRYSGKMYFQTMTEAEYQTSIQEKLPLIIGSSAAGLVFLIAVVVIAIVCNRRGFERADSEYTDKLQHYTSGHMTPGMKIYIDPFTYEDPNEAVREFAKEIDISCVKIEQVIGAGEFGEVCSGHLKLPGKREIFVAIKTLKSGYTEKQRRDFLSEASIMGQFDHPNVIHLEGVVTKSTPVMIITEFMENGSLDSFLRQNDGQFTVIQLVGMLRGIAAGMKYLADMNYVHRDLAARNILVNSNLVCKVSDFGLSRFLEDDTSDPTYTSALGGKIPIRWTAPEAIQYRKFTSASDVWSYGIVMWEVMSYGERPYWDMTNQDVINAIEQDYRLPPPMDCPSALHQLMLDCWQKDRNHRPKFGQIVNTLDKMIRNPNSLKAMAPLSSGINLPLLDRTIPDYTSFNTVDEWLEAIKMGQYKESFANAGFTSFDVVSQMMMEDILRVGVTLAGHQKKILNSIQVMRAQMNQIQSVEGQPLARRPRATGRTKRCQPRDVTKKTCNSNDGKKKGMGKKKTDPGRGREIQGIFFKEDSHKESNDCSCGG

[7] = molecular target: protein kinases (human kinome) (Homo sapiens, UniProt P51957); details: experiment wp146
Chain of protein kinases (human kinome) (Homo sapiens, UniProt P51957) (P51957 whole entry): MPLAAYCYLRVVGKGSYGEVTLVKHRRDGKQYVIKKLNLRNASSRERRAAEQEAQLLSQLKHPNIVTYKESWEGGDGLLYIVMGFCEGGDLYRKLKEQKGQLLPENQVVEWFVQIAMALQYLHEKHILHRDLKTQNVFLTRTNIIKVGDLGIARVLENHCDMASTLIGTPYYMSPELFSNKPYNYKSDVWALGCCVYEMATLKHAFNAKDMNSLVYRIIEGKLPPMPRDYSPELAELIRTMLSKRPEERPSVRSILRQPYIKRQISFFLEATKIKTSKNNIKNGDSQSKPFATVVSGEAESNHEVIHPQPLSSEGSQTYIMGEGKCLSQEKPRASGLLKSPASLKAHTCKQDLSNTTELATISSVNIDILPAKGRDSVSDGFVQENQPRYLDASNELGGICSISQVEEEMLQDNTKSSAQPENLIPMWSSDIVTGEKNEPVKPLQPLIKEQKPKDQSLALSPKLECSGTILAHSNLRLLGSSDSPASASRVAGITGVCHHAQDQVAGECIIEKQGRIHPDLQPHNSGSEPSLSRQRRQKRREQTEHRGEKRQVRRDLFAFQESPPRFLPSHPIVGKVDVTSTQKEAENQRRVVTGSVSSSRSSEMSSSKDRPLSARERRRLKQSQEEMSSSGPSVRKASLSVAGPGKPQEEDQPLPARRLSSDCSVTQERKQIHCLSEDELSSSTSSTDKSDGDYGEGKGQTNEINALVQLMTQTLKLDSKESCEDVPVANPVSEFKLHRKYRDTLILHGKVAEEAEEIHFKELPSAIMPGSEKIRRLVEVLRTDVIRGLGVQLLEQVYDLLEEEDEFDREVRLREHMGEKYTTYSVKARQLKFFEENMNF

[8] = molecular target: protein kinases (human kinome) (Homo sapiens, UniProt Q16832)
[9] = molecular target: protein kinases (human kinome) (Homo sapiens, UniProt Q9BZX2); details: protein UCK2 (Q9BZX2-1); experiment wp160, 8 hr; down
Chain of protein kinases (human kinome) (Homo sapiens, UniProt Q9BZX2) (Q9BZX2 whole entry): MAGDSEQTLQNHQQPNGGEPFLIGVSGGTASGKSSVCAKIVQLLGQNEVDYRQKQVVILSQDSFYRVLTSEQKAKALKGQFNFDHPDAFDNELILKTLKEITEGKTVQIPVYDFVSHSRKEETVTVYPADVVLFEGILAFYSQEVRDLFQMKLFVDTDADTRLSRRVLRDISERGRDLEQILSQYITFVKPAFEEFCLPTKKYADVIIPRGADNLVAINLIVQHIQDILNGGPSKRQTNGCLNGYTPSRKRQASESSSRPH

[10] = molecular target: protein kinases (human kinome) (Homo sapiens, UniProt Q6P5Z2)
Chain of protein kinases (human kinome) (Homo sapiens, UniProt Q6P5Z2) (Q6P5Z2 whole entry): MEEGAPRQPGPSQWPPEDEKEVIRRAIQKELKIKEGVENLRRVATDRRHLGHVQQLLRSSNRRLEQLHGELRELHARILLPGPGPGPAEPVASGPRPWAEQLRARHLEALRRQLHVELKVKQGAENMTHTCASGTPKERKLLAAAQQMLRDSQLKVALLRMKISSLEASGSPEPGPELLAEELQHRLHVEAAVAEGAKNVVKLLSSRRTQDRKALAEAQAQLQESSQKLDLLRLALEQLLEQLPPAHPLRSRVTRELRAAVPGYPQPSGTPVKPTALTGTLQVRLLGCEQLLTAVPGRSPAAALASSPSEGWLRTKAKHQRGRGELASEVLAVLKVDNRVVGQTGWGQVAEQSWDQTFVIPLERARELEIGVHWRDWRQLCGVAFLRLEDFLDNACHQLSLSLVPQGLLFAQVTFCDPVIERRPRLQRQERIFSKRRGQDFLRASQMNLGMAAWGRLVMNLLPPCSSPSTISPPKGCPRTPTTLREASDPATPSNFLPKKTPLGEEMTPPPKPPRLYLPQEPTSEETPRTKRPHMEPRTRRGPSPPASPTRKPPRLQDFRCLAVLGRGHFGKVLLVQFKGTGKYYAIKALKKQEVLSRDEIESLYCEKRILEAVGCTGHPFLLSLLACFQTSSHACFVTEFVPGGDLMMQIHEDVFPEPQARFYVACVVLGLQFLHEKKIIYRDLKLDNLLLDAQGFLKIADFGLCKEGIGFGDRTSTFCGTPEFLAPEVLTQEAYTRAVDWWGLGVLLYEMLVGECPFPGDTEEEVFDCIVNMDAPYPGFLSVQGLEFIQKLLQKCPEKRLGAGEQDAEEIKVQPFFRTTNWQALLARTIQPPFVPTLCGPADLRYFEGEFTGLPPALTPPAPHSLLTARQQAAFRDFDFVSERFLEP

[11] = molecular target: protein kinases (human kinome) (Homo sapiens, UniProt P41743); details: experiment wp056
[12] = molecular target: protein kinases (human kinome) (Homo sapiens, UniProt Q01415); details: protein GALK2 (Q01415-1); experiment wp056; down
[13] = molecular target: protein kinases (human kinome) (Homo sapiens, UniProt Q8NFU5); details: IPMK (Q8NFU5)
Chain of protein kinases (human kinome) (Homo sapiens, UniProt Q8NFU5) (Q8NFU5 whole entry): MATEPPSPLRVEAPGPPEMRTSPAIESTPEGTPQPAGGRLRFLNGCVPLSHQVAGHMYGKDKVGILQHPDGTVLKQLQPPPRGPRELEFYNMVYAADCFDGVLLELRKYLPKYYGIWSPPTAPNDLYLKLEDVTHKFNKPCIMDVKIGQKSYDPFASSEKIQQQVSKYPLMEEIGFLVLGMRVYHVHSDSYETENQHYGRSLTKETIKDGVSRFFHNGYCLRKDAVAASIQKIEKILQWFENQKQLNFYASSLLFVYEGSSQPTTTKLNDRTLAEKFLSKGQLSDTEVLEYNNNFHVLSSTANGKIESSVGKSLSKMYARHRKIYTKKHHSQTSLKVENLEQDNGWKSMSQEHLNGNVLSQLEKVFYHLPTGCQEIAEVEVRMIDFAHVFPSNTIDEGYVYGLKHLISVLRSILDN

[14] = molecular target: protein kinases (human kinome) (Homo sapiens, UniProt Q8IW41); details: experiment wp080
Chain of protein kinases (human kinome) (Homo sapiens, UniProt Q8IW41) (Q8IW41 whole entry): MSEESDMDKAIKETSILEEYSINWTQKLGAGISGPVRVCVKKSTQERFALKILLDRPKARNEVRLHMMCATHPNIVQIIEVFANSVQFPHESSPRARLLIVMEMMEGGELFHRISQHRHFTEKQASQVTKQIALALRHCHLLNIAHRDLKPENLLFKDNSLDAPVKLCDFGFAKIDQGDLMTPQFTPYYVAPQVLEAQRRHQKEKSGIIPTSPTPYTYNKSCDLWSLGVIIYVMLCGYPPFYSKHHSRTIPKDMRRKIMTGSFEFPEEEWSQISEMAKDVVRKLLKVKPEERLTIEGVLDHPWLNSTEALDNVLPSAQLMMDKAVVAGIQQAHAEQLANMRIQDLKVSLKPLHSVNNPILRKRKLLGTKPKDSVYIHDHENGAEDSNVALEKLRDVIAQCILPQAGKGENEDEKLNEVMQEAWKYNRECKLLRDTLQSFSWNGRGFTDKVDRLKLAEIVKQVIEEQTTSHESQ

CS(=O)(=O)Nc1cccc(-c2csc3cnc(Nc4ccc(N5CCN(CCCCCOc6cccc7c6C(=O)N(C6CCC(=O)NC6=O)C7=O)CC5)cc4)nc23)c1 (stereo not drawn) [DB0614, N-(3-(2-((4-(4-(5-((2-(2,6-Dioxopiperidin-3-yl)-1,3-dioxoisoindolin-4-yl)oxy)pentyl)piperazin-1-yl)phenyl)amino)thieno[3,2-d]pyrimidin-7-yl)phenyl)methanesulfonamide]
logFC PDXK [1]: −0.3964

CC(C)S(=O)(=O)c1ccccc1Nc1nc(Nc2ccc(N3CCN(CCOCCNC(=O)CNc4cccc5c4C(=O)N(C4CCC(=O)NC4=O)C5=O)CC3)cc2)ncc1Cl (stereo not drawn) [SK.3.91]
logFC EPHB4 (P54760) ([2]; direction of change down): −0.5059 | logFC EPHB4 ([2]; protein EPHB4 (P54760), down): −0.5059 | logFC of PRKAA1 (Q13131) ([3]; Experiment wp160, 2 hr): −0.3284 | logFC PRKAA1 (Q13131) ([3]; Experiment wp160, 2 hr): −0.3284 | logFC PRKAA1 (Q13131) ([3]; Experiment wp160, 4 hr): −0.6117 | logFC of PRKAA1 (Q13131) ([3]; Experiment wp172): −0.4542 | logFC PRKAA1 (Q13131) ([3]; Experiment wp172): −0.4542 | logFC of PRKAA1 (Q13131) ([3]; experiment wp160, 4 hr): −0.6117 | logFC TRPM7 (Q96QT4) ([4]; direction of change down): −0.3241 | logFC TRPM7 ([4]; protein TRPM7 (Q96QT4), down): −0.3241 | logFC of SBK1 (Q52WVX2) ([5]; Experiment wp107): −0.921 | logFC ([5]; experiment wp107): −0.921 | logFC ([5]; experiment wp133, 2 hr): −0.6852 | logFC ([5]; experiment wp133, 4 hr): −0.9029 | logFC of SBK1 (Q52WX2) ([5]; experiment wp133, 2 hr): −0.6852 | logFC of SBK1 (Q52WX2) ([5]; experiment wp133, 4 hr): −0.9029 | logFC ([6]; EPHB2 (P29323), experiment wp107): −0.6293 | logFC of EPHB2 (P29323) ([6]; Experiment wp107): −0.6293

Cc1cc(Nc2ncc(Br)c(Nc3cccc(F)c3C(N)=O)n2)ccc1S(=O)(=O)NCCOCCOCCOCCOCCNc1cccc2c1C(=O)N(C1CCC(=O)NC1=O)C2=O (stereo not drawn) [TMX.02.174]
logFC NEK4 (P51957) ([7]; direction of change down): −0.9508 | logFC NEK4 ([7]; protein NEK4 (P51957), down): −0.9508

Cc1ccc(NC(=O)c2cccc(C(F)(F)F)c2)cc1N1Cc2cnc(Nc3ccc(N4CCN(Cc5cn(CCCCCOc6cccc7c6C(=O)N(C6CCC(=O)NC6=O)C7=O)nn5)CC4)nc3)nc2N(C)C1=O (stereo not drawn) [DB0646, N-(3-(7-((6-(4-((1-(5-((2-(2,6-Dioxopiperidin-3-yl)-1,3-dioxoisoindolin-4-yl)oxy)pentyl)-1H-1,2,3-triazol-4-yl)methyl)piperazin-1-v)pyridin-3-yl)amino)-1-methyl-2-oxo-1,4-dihydropyrimido[4,5-d]pyrimidin-3(2H)-yl)-4-methylphenyl)-3-(trifluoromethyl)benzamide]
logFC DDR2 (Q16832) ([8]; Experiment wp105, direction of change down): −0.4741 | logFC DDR2 ([8]; protein DDR2 (Q16832), experiment wp105, down): −0.4741 | logFC UCK2 [9]: −0.3246

Cc1ncsc1-c1ccc([C@H](C)NC(=O)[C@@H]2C[C@@H](O)CN2C(=O)[C@@H](NC(=O)CCOCCOCCN2CCN(c3ccc(Nc4ncc(Cl)c(Nc5ccccc5S(=O)(=O)C(C)C)n4)cc3)CC2)C(C)(C)C)cc1 [FMF.06.098.1]
logFC PKN3 (Q6P5Z2) ([10]; Experiment wp114, direction of change down): −0.451 | logFC PKN3 ([10]; protein PKN3 (Q6P5Z2), experiment wp114, down): −0.451

C=CCn1c(=O)c2cnc(Nc3ccc(N4CCN(CCCNc5cccc6c5C(=O)N(C5CCC(=O)NC5=O)C6=O)CC4)cc3)nc2n1-c1cccc(C(C)(C)O)n1 (stereo not drawn) [ZNL.02.096]
logFC PRKCI (P41743) ([11]; direction of change down): −0.5365 | logFC PRKCI ([11]; protein PRKCI (P41743), down): −0.5365 | logFC GALK2 [12]: −0.3724

Nc1ncc(-c2ccc(S(=O)(=O)N(CCCNC(=O)CCOCCOCCOCCOCCOCCNc3cccc4c3C(=O)N(C3CCC(=O)NC3=O)C4=O)C3CC3)cc2)cc1-c1ccc2c(c1)CCNC2=O (stereo not drawn) [WH.10417.099]
logFC ([13]; experiment wp056): −0.5845 | logFC ([13]; experiment wp107): −0.4154

Cc1ncsc1-c1ccc([C@H](C)NC(=O)[C@@H]2C[C@@H](O)CN2C(=O)[C@@H](NC(=O)CCCCCN2CCN(c3ccc(Nc4ncc5scc(-c6cccc(NS(C)(=O)=O)c6)c5n4)cc3)CC2)C(C)(C)C)cc1 [RSS0680, (2S,4R)-1-((S)-3,3-Dimethyl-2-(6-(4-(4-((7-(3-(methylsulfonamido)phenyl)thieno[3,2-d]pyrimidin-2-yl)amino)phenyl)piperazin-1-yl)hexanamido)butanoyl)-4-hydroxy-N—((S)-1-(4-(4-methylthiazol-5yl)phenyl)ethyl)pyrrolidine-2-carboxamide]
logFC MAPKAPK5 (Q8IW41) ([14]; direction of change down): −0.3355 | logFC MAPKAPK5 ([14]; protein MAPKAPK5 (Q8IW41), down): −0.3355
